Measurements from paper PMC2945410 (Journal of molecular biology, 2010).

Columns and labels:
E. coli YahA = target: T1, E. coli YahA (Escherichia coli, UniProt P21514); assay: p-nitrophenol release, absorbance at […] nm; format: biochemical; settings: 10 mM bis-pNPP, 50 mM HEPES pH 7.5, 2 mM MnCl2
T1 sequence (P21514 73-362): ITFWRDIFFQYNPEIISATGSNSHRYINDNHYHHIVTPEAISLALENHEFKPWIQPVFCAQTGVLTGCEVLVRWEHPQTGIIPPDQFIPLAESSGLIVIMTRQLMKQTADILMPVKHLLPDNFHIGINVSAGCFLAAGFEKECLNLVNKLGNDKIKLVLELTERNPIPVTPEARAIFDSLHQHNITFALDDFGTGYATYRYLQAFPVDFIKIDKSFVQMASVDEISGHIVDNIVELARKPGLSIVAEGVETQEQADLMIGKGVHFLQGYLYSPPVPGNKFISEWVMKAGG

TBD1660 = target: T2, TBD1660 (Thiobacillus denitrificans, UniProt Q3SIB5); assay: p-nitrophenol release, absorbance at […] nm; format: biochemical; settings: 10 mM bis-pNPP, 50 mM HEPES pH 7.5, 2 mM MnCl2
T2 sequence (Q3SIB5 443-698): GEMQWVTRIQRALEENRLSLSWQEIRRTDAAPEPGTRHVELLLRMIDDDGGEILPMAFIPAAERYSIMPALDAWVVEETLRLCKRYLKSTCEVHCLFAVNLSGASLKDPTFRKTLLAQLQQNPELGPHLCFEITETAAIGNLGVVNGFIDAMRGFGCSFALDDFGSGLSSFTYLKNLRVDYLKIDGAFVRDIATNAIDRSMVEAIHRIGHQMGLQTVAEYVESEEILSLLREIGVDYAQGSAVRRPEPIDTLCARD

O=[N+]([O-])c1ccc(OP(=O)(O)Oc2ccc([N+](=O)[O-])cc2)cc1 [bis-pNPP, bis-p-nitrophenyl phosphate]
p-nitrophenol release, absorbance at 410 nm (E. coli YahA): E. coli YahA and T. denitrificans TBD1660 showing the highest activities
p-nitrophenol release, absorbance at 410 nm (TBD1660): E. coli YahA and T. denitrificans TBD1660 showing the highest activities
